Values of other authors, collected in patent US11725135B2 (priority 2019, dated 2023).

Structure (SMILES) | concentration above which precipitation occurs / solubility [g/L]
F[Si-2](F)(F)(F)(F)F.[K+].[K+] [Example K2SiF6, potassium hexafluorosilicate] | 1.8
F[Si-2](F)(F)(F)(F)F.[Na+].[Na+] [Na2SiF6] | 6.4
